These results are taken from patent publication US20020019374A1, “Salicylohydrazide derivatives, processes and intermediates for their preparation, compositions comprising them, and their use” (priority 2000, published 2002).

In general, melting point refers to the temperature of the solid-liquid transition. As for `C/C(=N\NC(=O)c1cccc([N+](=O)[O-])c1O)c1ccccc1` [I-1, 3-nitrosalicylic (1-phenylethylidene)hydrazide], the melting point fell in the range of 163 to 168 °C.
